In data set [1] the target is T1, enzyme MGL (monoacyl glycerol lipase) (Mus musculus, UniProt O35678).
T1 construct: The source of enzyme MGL is a homogenate of mouse brain from which the cerebellum and the medulla oblongata have been removed; from tissue; host or cells: mouse brain homogenate (cerebellum and medulla oblongata removed)
T1 sequence (O35678 1-303): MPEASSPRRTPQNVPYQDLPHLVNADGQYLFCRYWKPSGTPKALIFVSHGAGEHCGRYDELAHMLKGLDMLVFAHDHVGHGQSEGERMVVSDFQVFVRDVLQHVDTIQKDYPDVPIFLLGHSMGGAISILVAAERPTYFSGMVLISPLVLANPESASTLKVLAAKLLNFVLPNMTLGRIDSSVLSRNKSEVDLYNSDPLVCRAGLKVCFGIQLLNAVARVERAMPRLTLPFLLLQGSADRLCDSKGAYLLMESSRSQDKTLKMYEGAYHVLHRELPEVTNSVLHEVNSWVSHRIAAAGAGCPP
The data set is described as follows: radioenzymatic assay of MGL activity (hydrolysis of [3H]2-oleoylglycerol by mouse brain homogenate). It counts as biochemical. The conditions noted are these: mouse brain homogenate (37.5 μg protein), 20 min preincubation, 50 μM 2-OG with [3H]2-OG, ambient temperature, read-out: IC50 (concentration which inhibits the control enzymatic activity of the MGL by 50%). The protocol: The inhibitory activity with respect to MGL is given by the concentration which inhibits 50% of the activity of MGL.
The inhibitory activity was measured in a radioenzymatic assay based on measuring the product of hydrolysis of 2-oleoylglycerol ([^3H]2-OG) by the enzyme MGL. The products of hydrolysis of [^3H]2-OG, labelled on the glycerol, are oleic acid and [^3H]glycerol. The source of enzyme MGL is a homogenate of mouse brain from which the cerebellum and the medulla oblongata have been removed. The mouse brains are removed and stored at −80° C. until they are used or homogenized immediately for 2 times 5 seconds using a Precellys device (Bertin) at 5000 rpm in a 10 mM Tris-HCl pH 8, 150 mM NaCl, 1 mM EDTA buffer at 4° C.
The dilution series of the compounds is prepared from stock solutions at 20 mM in 100% DMSO. The first dilution of this series is prepared in 100% DMSO and then the second is prepared in the enzymatic reaction buffer (50 mM phosphate, 0.1% BSA), resulting in the preparation of a 10-times concentrated concentration range. The test compounds are preincubated at the chosen concentration for 20 minutes with the mouse brain homogenate preparation.
Assaying of the MGL activity is carried out at ambient temperature in a 96-well microplate in a final reaction volume of 50 μl. […] After 20 minutes of preincubation with the test compounds, the proteins are incubated for 20 minutes in the presence of 50 μM of 2-OG comprising an amount of [^3H]2-OG of 0.027 μCi per well (specific activity of 20 Ci/mmol). The reaction is stopped by the addition of 50 μl per well of a charcoal suspension (6% of Sigma activated charcoal, reference C4386, in suspension in a 0.5M HCl, 1.5M NaCl solution). After stirring for 10 minutes, the [^3H]glycerol, not retained by the charcoal, is collected by filtration in a microplate comprising 100 μl of scintillant (OptiPhase Supermix, Perkin-Elmer) per well.

Structures are written as SMILES. Where a name gives a salt, the structure may show the parent alone.

17 compounds from patent US8835418B2, “Hexafluoroisopropyl carbamate derivatives, their preparation and their therapeutic application” (SANOFI, priority 2010, dated 2014) can be followed below.

Regarding `N#Cc1cccc(-c2cccc(OC3CCN(C(=O)OC(C(F)(F)F)C(F)(F)F)CC3)c2)c1` [Compound 33, 2,2,2-Trifluoro-1-(trifluoromethyl)ethyl 4-(3′-cyanobiphenyl-3-yloxy)piperidine-1-carboxylate], the melting point fell in the range of 80 to 82 °C. Also, in data set [1], the IC50 amounted to 0.6 nM.

On to `O=C(OC(C(F)(F)F)C(F)(F)F)N1CCC(c2noc3cc(F)ccc23)CC1` [Compound 10, 2,2,2-Trifluoro-1-(trifluoromethyl)ethyl 4-(6-fluorobenz[d]isoxazol-3-yl)piperidine-1-carboxylate], for which the melting point fell in the range of 91 to 93 °C.

In the case of `N#Cc1ccc(C2CCN(C(=O)OC(C(F)(F)F)C(F)(F)F)CC2)cc1` [Compound 5, 2,2,2-Trifluoro-1-(trifluoromethyl)ethyl 4-(4-cyanophenyl)piperidine-1-carboxylate], the melting point fell in the range of 54 to 56 °C.

In the case of `O=C(OC(C(F)(F)F)C(F)(F)F)N1CCC(Nc2ccc(C(F)(F)F)cn2)CC1` (as salt: hydrochloride) [Compound 65, 2,2,2-Trifluoro-1-(trifluoromethyl)ethyl 4-(5-(trifluoromethyl)pyridin-2-ylamino)piperidine-1-carboxylate hydrochloride (1:1)], the melting point is 225 to 235 °C (dec.).

Consider `O=C(OC(C(F)(F)F)C(F)(F)F)N1CC(C2(NS(=O)(=O)c3ccc(Cl)cc3)CC2)C1` [Compound 220, 2,2,2-Trifluoro-1-(trifluoromethyl)ethyl 3-[1-(4-chlorobenzenesulphonylamino)cyclopropyl]-azetidine-1-carboxylate], for which the melting point lay within 108 to 109 °C.

As to `O=C(OC(C(F)(F)F)C(F)(F)F)N1CCC(n2nnc3cc(C(F)(F)F)ccc32)CC1` [Compound 13, 2,2,2-Trifluoro-1-(trifluoromethyl)ethyl 4-(5-(trifluoromethyl)benzotriazol-1-yl)piperidine-1-carboxylate], in data set [1], the IC50 stood at 6 nM.

As to `O=C(OC(C(F)(F)F)C(F)(F)F)N1CC[C@H](Oc2cccc(-c3ccc(F)cc3)c2)C1` [Compound 22, 2,2,2-Trifluoro-1-(trifluoromethyl)ethyl (S)-3-(4′-fluorobiphenyl-3-yloxy)pyrrolidine-1-carboxylate], the melting point fell in the range of 72 to 73 °C.

With `NC(=O)c1cnn(CC2CCN(C(=O)OC(C(F)(F)F)C(F)(F)F)CC2)c1` [Compound 231, 2,2,2-Trifluoro-1-(trifluoromethyl)ethyl 4-(4-carbamoylpyrazol-1-ylmethyl)piperidine-1-carboxylate], the melting point is 98 to 118 °C.

`N#Cc1cccc(-c2nccc(NC3CCN(C(=O)OC(C(F)(F)F)C(F)(F)F)CC3)n2)c1` [Compound 70, 2,2,2-Trifluoro-1-(trifluoromethyl)ethyl 4-[2-(3-cyanophenyl)pyrimidin-4-ylamino]pipendine-1-carboxylate] had a melting point of 151 to 153 °C. Besides, the IC50 in data set [1] came out at 5 nM.

`O=C(OC(C(F)(F)F)C(F)(F)F)N1CC[C@@H](Oc2cccc(-c3ccc(F)cc3)c2)C1` [Compound 23, 2,2,2-Trifluoro-1-(trifluoromethyl)ethyl (R)-3-(4′-fluorobiphenyl-3-yloxy)pyrrolidine-1-carboxylate] yielded a melting point of 72 to 73 °C.

In the case of `CC(C)(Oc1ccc(Cl)cc1)C(=O)NCC1CCN(C(=O)OC(C(F)(F)F)C(F)(F)F)CC1` [Compound 87, 2,2,2-Trifluoro-1-(trifluoromethyl)ethyl 4-{[2-(4-chlorophenoxy)-2-methylpropionylamino]-methyl}piperidine-1-carboxylate], the melting point lay within 77 to 78 °C.

`O=C(OC(C(F)(F)F)C(F)(F)F)N1CCC(CNS(=O)(=O)c2cccc3nsnc23)CC1` [Compound 211, 2,2,2-Trifluoro-1-(trifluoromethyl)ethyl 4-[(benzo[1,2,5]thiadiazole-4-sulphonylamino)methyl]piperidine-1-carboxylate]: the melting point lay within 146 to 148 °C. Also, in data set [1], the IC50 came out at 7 nM.

Consider `O=C(NCCC1CN(C(=O)OC(C(F)(F)F)C(F)(F)F)C1)Nc1cccc(Cl)c1` [Compound 188, 2,2,2-Trifluoro-1-(trifluoromethyl)ethyl 3-{2-[3-(3-chlorophenyl)ureido]ethyl}azetidine-1-carboxylate], for which the melting point lay in the range of 116 to 117 °C. In data set [1], the IC50 was found to be 1.1 nM.

In turn, `O=C(OC(C(F)(F)F)C(F)(F)F)N1CCC(CNS(=O)(=O)c2cccc3ccccc23)C1` (stereo not drawn) [Compound 113, 2,2,2-Trifluoro-1-(trifluoromethyl)ethyl 3-[(naphthalene-1-sulphonylamino)methyl]-pyrrolidine-1-carboxylate] yielded a melting point of 135 to 136 °C.

Take `O=C(Nc1cccc(Cl)c1)NC1CCN(C(=O)OC(C(F)(F)F)C(F)(F)F)CC1` [Compound 166, 2,2,2-Trifluoro-1-(trifluoromethyl)ethyl 4-[3-(3-chlorophenyl)ureido]piperidine-1-carboxylate]: the melting point was 204 to 206 °C.

On to `O=C(OC(C(F)(F)F)C(F)(F)F)N1CCC(n2c(=O)[nH]c3cc(Cl)ccc32)CC1` [Compound 12, 2,2,2-Trifluoro-1-(trifluoromethyl)ethyl 4-(5-chloro-2-oxo-2,3-dihydrobenzimidazol-1-yl)piperidine-1-carboxylate], for which the melting point fell in the range of 231 to 233 °C.

Take `CN(C(=O)NCCC1CN(C(=O)OC(C(F)(F)F)C(F)(F)F)C1)c1ccccc1` [Compound 191, 2,2,2-Trifluoro-1-(trifluoromethyl)ethyl 3-[2-(3-methyl-3-phenylureido)ethyl]azetidine-1-carboxylate]: the melting point is 101 to 102 °C.

One may read the melting point as the temperature, or range, at which the solid turns liquid.
